Data: patent publication US20210290524A1, “TOPICAL TRPV1 ANTAGONISTS AND METHODS AND COMPOSITIONS THEREOF” (CHILDREN'S MEDICAL CENTER CORPORATION, priority 2016, published 2021)
Ends that are not written are not given here.

What was measured:
[1] = test system: TrpV1 expressing afferents; assay: in vivo calcium imaging of injury-activated trigeminal ganglion neurons, topical capsaicin; design: species or system mouse; settings: topical 5 mM capsaicin after incision injury, 32 of 38 neurons
Source text: FIG. 9A is a micrograph of calcium imaging field in trigeminal ganglion of VGlut2^Cre; Rosa26^LSL-GCαMP6f mouse, with neurons active after injury highlighted. Scale bar is 100 μm. […] (The VGlut2^Cre; Rosa26^LSL-GCαMP6f mouse is generated by crossing a VGlut2-Cre mice with a […] mice, therefore the resulting double transgenic VGlut2^Cre; Rosa26^LSL-GCαMP6f mice express tD-Tomato (a red fluorescence protein) in all the sensory neurons but not in any other type of neuron. This allows for labeling and imaging of only sensory neurons in vivo.)
The inventors assessed effect of topical TRPV1 agonist capsaicin applied after acute injury and wound in a mouse model in vivo. […] Capsaicin, a TRPV1 agonist, was later applied to the same region to determine that an unexpected high number of neurons, […] of neurons activated by injury were also TRPV1-positive.

[2] = biological target: T1, TRPV1 (Mus musculus, UniProt Q704Y3)
[3] = biological target: T1, TRPV1; assay: whole cell patch clamp of capsaicin-induced currents in primary murine DRG neurons; assay type: cell-based; design: capsaicin-induced currents in primary murine DRG neurons using whole cell patch clamp; endogenous in cells; host or cells: primary murine dorsal root ganglion (DRG) neurons; settings: for block of capsaicin-induced currents by opiorphin family peptides: DRG neurons
[4] = biological target: T2, TRPV1 (Homo sapiens, UniProt Q8NER1); settings: applied topically; cited from earlier work
[5] = biological target: TRPA1 (Mus musculus, UniProt Q8BLA8); settings: 30 μM; AITC 50 μM
[6] = biological target: P2X3 (Mus musculus, UniProt Q3UR32); settings: 30 μM; α,β-methylene-ATP 30 μM
[7] = test system: TRPV1; settings: pH 5.6; 1 μM
[8] = biological target: rat TRPV1 (Rattus norvegicus, UniProt O35433); settings: 1 μM
[9] = test system: TRPV1 pore turret domain mutants (G603-N626); settings: deletion and substitution mutations
[10] = biological target: TRPV4 (Mus musculus, UniProt Q9EPK8); settings: 30 μM; GSK 1016790A 1 μM
[11] = biological target: T1, TRPV1; assay: capsaicin-induced calcium flux in primary murine DRG neurons (plate-based/FLIPR); assay type: cell-based; design: capsaicin-induced currents in primary murine DRG neurons using whole cell patch clamp; endogenous in cells; host or cells: primary murine dorsal root ganglion (DRG) neurons; settings: DRG neuron, read-out: inhibition of capsaicin-induced calcium flux
Source text: To test the possibility that saliva may inhibit the TRPV1 heat pain receptor^12-14 in nociceptors, we collected samples of whole saliva from four human donors and ran a screen on primary murine dorsal root ganglion (DRG) neurons.

[12] = biological target: rTRPV1 (Rattus norvegicus, UniProt O35433)
Experimental: To identify if the antagonists were peptides, we purified saliva through a 30 kDa filter to eliminate large proteins and then used reverse-phase HPLC to fractionate the samples (FIG. 1B). […] The resultant 37 1 mL-fractions were dried, reconstituted in HBSS and screened on HEK cells transiently transfected with TRPV1 (FIG. 1C).

[13] = biological target: T1, TRPV1; settings: 5 nmol/mouse with capsaicin 5 nmol/mouse, paw injection
Source text: Injection of capsaicin into a paw produces a short bout of biting and licking.

[14] = biological target: TRPM8 (Mus musculus, UniProt Q8R4D5); settings: 30 μM; Menthol 100 μM
[15] = biological target: T2, TRPV1; settings: HEK293 cells transiently expressing hTRPV1
[16] = biological target: T1, TRPV1; settings: Hot-plate test 52±0.1° C.
[17] = biological target: T1, TRPV1; settings: Von frey filaments

T1 sequence (Q704Y3 whole entry): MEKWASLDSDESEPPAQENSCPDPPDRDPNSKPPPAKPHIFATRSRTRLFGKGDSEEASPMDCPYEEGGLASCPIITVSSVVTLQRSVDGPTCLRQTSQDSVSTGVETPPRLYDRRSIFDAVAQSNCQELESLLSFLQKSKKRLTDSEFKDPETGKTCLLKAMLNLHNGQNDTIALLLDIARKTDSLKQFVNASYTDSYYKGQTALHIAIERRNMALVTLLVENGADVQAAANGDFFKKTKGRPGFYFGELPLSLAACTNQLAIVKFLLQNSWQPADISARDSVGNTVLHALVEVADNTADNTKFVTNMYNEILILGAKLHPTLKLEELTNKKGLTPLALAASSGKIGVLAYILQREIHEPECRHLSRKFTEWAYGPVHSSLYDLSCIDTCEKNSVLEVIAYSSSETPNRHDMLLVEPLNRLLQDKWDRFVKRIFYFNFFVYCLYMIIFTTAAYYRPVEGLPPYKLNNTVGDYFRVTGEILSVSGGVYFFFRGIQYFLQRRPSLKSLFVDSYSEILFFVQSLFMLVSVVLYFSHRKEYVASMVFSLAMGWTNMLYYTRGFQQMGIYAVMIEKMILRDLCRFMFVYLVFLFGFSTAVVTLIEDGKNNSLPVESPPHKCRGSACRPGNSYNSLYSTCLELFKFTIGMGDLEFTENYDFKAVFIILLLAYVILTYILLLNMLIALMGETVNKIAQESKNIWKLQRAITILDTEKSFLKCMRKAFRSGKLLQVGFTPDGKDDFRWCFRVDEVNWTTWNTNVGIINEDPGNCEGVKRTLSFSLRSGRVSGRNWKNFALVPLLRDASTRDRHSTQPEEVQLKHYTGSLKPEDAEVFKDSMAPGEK
T2 sequence (Q8NER1 whole entry): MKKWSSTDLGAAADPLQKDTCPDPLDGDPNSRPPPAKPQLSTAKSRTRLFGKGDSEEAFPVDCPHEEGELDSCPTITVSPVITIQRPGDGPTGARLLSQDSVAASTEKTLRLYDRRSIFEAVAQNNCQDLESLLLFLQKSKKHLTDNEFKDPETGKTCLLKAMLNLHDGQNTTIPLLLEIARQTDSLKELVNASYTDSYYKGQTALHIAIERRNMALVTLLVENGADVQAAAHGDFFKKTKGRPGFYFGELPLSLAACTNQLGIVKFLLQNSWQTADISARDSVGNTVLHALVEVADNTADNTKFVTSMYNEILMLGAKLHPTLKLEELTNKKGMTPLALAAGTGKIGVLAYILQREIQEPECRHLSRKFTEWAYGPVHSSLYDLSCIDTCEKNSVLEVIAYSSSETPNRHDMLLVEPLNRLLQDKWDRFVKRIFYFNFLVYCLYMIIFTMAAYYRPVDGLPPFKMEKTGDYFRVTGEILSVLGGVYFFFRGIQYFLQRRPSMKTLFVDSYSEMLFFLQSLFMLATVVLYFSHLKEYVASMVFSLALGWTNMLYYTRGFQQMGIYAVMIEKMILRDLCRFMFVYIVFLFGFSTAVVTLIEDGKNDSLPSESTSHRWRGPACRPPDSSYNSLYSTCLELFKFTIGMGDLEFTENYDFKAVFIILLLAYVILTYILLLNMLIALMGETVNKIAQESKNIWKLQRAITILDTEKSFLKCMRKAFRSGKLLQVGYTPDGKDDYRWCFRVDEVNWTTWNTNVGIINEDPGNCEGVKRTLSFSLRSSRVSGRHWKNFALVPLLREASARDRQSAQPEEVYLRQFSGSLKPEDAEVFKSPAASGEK
Sequence of rat TRPV1 (O35433 whole entry, the tested form may be a part): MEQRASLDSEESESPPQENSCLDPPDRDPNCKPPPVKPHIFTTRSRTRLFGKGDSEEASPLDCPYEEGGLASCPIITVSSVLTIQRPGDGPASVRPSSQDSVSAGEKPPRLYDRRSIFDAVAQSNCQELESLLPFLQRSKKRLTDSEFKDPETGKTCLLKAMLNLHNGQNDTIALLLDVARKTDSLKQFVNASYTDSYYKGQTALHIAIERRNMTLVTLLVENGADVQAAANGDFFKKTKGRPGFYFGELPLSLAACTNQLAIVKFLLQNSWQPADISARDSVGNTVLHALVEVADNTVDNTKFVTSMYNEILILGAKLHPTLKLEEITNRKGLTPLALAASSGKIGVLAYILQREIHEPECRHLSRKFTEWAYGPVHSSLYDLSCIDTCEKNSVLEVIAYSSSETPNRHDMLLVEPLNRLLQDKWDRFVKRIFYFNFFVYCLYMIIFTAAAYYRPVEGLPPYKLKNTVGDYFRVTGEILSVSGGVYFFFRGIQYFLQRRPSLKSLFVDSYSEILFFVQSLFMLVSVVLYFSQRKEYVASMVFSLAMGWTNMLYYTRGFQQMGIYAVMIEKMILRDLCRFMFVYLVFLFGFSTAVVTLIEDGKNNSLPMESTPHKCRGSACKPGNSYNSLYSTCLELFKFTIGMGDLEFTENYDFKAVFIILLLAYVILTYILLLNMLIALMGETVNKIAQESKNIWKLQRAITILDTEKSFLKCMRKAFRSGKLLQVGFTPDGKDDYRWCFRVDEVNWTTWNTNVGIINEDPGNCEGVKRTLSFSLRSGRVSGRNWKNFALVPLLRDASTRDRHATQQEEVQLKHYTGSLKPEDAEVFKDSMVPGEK
Sequence of rTRPV1 (O35433 whole entry): as the sequence (O35433 whole entry, the tested form may be a part) above
Sequence of TRPV4 (Q9EPK8 whole entry): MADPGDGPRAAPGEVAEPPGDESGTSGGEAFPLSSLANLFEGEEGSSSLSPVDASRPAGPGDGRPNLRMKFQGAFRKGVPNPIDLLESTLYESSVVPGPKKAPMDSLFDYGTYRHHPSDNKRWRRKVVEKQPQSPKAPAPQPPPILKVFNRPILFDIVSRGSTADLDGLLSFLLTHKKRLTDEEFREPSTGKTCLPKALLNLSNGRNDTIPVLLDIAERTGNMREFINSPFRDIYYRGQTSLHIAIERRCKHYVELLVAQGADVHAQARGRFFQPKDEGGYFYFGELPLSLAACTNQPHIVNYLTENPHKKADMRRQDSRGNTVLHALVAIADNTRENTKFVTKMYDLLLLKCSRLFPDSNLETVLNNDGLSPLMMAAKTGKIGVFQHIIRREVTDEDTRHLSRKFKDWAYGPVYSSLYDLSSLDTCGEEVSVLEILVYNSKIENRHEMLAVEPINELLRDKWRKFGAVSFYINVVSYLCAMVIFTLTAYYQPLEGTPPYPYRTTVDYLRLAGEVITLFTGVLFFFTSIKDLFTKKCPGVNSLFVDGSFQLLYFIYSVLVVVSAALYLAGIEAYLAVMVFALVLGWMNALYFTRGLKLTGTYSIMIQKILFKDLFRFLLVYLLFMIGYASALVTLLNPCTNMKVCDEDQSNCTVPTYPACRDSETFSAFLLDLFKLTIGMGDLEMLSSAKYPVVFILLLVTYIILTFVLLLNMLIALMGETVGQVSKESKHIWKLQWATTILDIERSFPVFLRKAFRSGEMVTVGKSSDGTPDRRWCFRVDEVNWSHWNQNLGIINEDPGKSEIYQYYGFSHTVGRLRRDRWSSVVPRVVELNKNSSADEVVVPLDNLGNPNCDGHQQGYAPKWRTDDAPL
Sequence of P2X3 (Q3UR32 whole entry): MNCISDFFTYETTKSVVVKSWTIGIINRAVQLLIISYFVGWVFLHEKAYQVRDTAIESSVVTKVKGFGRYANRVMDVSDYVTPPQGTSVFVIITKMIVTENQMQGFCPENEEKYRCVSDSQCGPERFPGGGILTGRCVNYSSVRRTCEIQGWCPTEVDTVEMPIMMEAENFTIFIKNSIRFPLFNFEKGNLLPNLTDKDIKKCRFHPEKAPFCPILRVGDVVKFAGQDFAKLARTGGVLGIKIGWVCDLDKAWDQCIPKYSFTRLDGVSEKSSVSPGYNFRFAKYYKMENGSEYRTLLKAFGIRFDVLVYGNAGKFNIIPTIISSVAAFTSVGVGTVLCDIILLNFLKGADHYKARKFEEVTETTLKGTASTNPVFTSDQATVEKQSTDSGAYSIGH
Sequence of TRPM8 (Q8R4D5 whole entry): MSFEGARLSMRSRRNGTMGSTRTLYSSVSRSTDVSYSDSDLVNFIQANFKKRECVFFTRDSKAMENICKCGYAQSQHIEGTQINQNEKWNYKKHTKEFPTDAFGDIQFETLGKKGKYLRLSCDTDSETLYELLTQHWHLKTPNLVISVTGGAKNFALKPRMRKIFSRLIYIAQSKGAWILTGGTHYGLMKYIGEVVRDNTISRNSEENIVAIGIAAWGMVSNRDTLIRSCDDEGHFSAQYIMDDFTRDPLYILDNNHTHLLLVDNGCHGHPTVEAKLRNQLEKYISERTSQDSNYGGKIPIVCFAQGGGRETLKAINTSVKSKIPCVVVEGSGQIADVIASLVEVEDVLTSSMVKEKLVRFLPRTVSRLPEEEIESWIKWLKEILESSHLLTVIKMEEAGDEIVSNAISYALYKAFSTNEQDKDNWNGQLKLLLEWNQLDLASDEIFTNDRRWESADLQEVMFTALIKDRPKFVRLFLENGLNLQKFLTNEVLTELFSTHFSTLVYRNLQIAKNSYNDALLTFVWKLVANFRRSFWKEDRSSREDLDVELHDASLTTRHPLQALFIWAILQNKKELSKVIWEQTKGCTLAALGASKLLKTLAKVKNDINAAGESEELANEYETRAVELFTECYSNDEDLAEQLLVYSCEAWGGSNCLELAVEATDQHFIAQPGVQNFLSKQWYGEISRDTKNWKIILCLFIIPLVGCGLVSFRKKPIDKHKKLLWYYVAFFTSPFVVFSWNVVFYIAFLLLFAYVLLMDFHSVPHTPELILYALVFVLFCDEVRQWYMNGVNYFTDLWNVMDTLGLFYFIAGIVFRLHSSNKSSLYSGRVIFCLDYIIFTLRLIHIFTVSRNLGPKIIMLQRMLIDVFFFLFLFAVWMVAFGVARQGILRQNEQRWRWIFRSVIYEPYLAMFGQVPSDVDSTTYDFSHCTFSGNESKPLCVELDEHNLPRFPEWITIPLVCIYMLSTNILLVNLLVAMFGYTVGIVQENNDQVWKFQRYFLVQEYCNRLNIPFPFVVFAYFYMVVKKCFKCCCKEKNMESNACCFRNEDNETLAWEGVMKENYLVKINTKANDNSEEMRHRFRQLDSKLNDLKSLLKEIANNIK

For `COc1cc(CNC(=O)CCCC/C=C/C(C)C)ccc1O` [capsaicin], the “injury-activated neurons responding to capsaicin” value [1] was 84% and the “injury-activated neurons responding to capsaicin” value ([1]; listed as Capsaicin) was ~86%.
For `CC(C)(C)c1ccc(/C=C/C(=O)Nc2ccc3c(c2)OCCO3)cc1` [AMG 9810, (E)-3-(4-t-butylphenyl)-N-(2,3-dihydrobenzo[b][1,4]dioxin-6-yl)acrylamide, reference compound], the “acute licking of superficial paw incision wound” value ([2]; topical 30 μM, mice) was “reduced”.
With “SMR3 peptide: SMR3 peptide (QRGPR; SEQ ID NO: 5) of the opiorphin family [reference compound]” the “block of capsaicin-induced currents by opiorphin family peptides” value [3] was “no such activity”.
In the case of `O=C(Nc1ccccc1Br)N[C@@H]1CCN(c2ccc(C(F)(F)F)cn2)C1` [SB705498], the “symptomatic benefit for induced itch” value [4] is listed as “not to be of symptomatic benefit”.
For “sialorphin: rat peptide sialorphin (QHNPR, SEQ ID NO: 4) of the opiorphin family (listed as Rattus norvegicus) [reference compound]”, the “block of capsaicin-induced currents by opiorphin family peptides” value [3] was “blocked capsaicin-induced currents”.
In the case of QRFSR [opiorphin], the “inhibition of calcium flux by TRPA1 agonist” value [5] is reported as “did not inhibit”, the “inhibition of calcium flux by P2X3 agonist” value [6] is reported as “did not inhibit” and the “inhibition of proton-induced currents” value [7] is reported as “strongly inhibited”. The “block of capsaicin-induced currents” value [3] was “effectively eliminated”, the “effect on TRPV1 currents, external application” value [3] was “substantially reduced” and the “effect on TRPV1 currents, internal application” value [3] was “no change in TRPV1 currents was detected”. For the same compound, the “inhibition of capsaicin currents when applied into capsaicin application” value [3] was “inhibited capsaicin currents”, the “ability to block capsaicin-evoked currents after pertussis toxin” value ([3]; PTX 1 μg/mL, 3 hours) was “remained intact” and the “inhibition of resiniferatoxin action” value ([8]; RTX 100 nM, HEK293 rTRPV1) was “inhibited the action”. For the same compound, the “antagonism of capsaicin-evoked currents across voltages” value ([8]; capsaicin 1 μM, HEK293 rat TRPV1) was “antagonized capsaicin-evoked currents at all voltages tested”, the “inhibitory activity on pore turret mutants” value [9] was “loss of opiorphin inhibitory activity” and the “inhibition of calcium flux by TRPV4 agonist” value [10] was “did not inhibit”. For the same compound, the inhibition at 1 µM [11] was ~50%, the “peak efficacy of capsaicin reduced to” value ([12]; 100 nM opiorphin) was ~50% and the “mode of inhibition versus capsaicin” value ([12]; no rightward-shift of capsaicin curve) was “non-competitively”. For the same compound, the capsaicin-induced licking response [13] was “significantly reduced”, the “inhibition of calcium flux by TRPM8 agonist” value [14] was “did not inhibit” and the “licking/biting response to superficial paw incision” value ([2]; topical 10 μM, 5 s, C57 mice, vs topical saline) was “eliminated”. The “inhibition of capsaicin-induced currents” value [15] was “inhibited capsaicin-induced currents”, the “thermal hypersensitivity after capsaicin injection” value [16] was “reduced” and the “mechanical hypersensitivity after capsaicin injection” value [17] was “reduced”.
